Data: ChEMBL document CHEMBL5705898 (Proc Natl Acad Sci U S A, 2014)
In brackets after ≈: the same amount, converted by molar mass.

Tests used:
[1] = target: Substance-K receptor (Homo sapiens) (UniProt P21452); test: Inhibition of human NK2 receptor at 10 uM relative to control
[2] = target: Mitogen-activated protein kinase 1 (Homo sapiens) (UniProt P28482); test: Inhibition of human ERK2 (P42mapk) at 10 uM relative to control
[3] = target: Adenosine receptor A2b (Homo sapiens) (UniProt P29275); test: Inhibition of human A2B receptor at 10 uM relative to control
[4] = Aqueous solubility of compound; type: physicochemical; conditions: buffer
[5] = target: Tyrosine-protein kinase ZAP-70 (Homo sapiens) (UniProt P43403); test: Inhibition of human ZAP70 kinase at 10 uM relative to control
Tyrosine-protein kinase ZAP-70 (Homo sapiens), sequence (P43403 whole entry): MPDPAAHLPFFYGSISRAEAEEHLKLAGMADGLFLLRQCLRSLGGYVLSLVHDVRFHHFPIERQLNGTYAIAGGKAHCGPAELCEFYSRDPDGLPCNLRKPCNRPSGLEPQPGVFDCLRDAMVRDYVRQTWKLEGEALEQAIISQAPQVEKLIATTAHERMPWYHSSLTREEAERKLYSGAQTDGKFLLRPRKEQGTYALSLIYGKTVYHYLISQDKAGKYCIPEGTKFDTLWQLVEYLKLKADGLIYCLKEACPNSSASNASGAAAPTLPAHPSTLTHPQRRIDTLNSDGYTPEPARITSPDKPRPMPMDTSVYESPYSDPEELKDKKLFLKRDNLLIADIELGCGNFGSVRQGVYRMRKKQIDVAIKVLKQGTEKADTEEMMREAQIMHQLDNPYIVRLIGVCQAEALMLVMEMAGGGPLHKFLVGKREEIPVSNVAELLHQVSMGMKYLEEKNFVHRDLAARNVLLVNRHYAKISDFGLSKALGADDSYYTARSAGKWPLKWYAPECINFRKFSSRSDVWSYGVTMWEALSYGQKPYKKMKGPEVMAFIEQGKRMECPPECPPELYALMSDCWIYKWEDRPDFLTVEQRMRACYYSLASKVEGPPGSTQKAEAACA

[6] = target: Histamine H2 receptor (Homo sapiens) (UniProt P25021); test: Inhibition of human H2 receptor at 10 uM relative to control
[7] = target: Adenosine receptor A3 (Homo sapiens) (UniProt P0DMS8); test: Inhibition of human A3 receptor at 10 uM relative to control
Adenosine receptor A3 (Homo sapiens), sequence (P0DMS8 whole entry, the tested form may be a part): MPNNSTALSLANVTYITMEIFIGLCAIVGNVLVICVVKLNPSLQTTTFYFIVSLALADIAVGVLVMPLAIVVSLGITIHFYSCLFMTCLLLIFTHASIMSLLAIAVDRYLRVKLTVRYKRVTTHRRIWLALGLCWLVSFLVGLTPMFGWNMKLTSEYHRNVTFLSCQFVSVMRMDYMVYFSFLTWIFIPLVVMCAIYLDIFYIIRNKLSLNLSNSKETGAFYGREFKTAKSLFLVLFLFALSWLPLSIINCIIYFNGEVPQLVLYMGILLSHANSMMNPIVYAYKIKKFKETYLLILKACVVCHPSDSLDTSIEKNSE

[8] = target: T1, Histone-lysine N-methyltransferase SETD7 (Homo sapiens, UniProt Q8WTS6); test: Inhibition of wildtype full length human SETD7 (1 to 366 residues) expressed in Escherichia coli BL21 (DE3) V2R-pRARE using biotinylated H3 (1-25) peptide as substrate incubated for 1 hrs in presence of 3H-SAM by radioactivity based assay
T1 sequence (Q8WTS6 whole entry): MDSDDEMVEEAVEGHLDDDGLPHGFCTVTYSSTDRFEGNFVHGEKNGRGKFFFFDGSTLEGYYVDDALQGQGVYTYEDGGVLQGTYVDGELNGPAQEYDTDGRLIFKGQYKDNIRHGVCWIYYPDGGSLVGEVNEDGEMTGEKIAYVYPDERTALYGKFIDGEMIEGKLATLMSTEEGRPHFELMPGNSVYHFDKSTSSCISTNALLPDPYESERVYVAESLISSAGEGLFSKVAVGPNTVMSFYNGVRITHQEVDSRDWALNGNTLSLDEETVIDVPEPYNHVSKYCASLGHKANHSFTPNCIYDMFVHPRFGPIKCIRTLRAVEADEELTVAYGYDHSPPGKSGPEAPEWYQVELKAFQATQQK

[9] = target: Tyrosine-protein kinase ABL1 (Homo sapiens) (UniProt P00519); test: Inhibition of human Abl kinase at 10 uM relative to control
[10] = target: Alpha-2B adrenergic receptor (Homo sapiens) (UniProt P18089); test: Inhibition of human alpha 2B receptor at 10 uM relative to control
[11] = species: Homo sapiens; test: Inhibition of Ca2+ channel L, verapamil site (unknown origin) at 10 uM relative to control
[12] = target: T1, Histone-lysine N-methyltransferase SETD7; test: Inhibition of full length human SETD7 (1 to 366 residues) expressed in Escherichia coli BL21 (DE3) V2R-pRARE assessed as apparent inhibition constant using biotinylated H3 (1-25) peptide as substrate incubated for 1 hrs in presence of 3H-SAM by morrison equation; conditions: read-out: Ki(app)
[13] = target: Histamine H4 receptor (Homo sapiens) (UniProt Q9H3N8); test: Inhibition of human H4 receptor at 10 uM relative to control
Histamine H4 receptor (Homo sapiens), sequence (Q9H3N8 whole entry): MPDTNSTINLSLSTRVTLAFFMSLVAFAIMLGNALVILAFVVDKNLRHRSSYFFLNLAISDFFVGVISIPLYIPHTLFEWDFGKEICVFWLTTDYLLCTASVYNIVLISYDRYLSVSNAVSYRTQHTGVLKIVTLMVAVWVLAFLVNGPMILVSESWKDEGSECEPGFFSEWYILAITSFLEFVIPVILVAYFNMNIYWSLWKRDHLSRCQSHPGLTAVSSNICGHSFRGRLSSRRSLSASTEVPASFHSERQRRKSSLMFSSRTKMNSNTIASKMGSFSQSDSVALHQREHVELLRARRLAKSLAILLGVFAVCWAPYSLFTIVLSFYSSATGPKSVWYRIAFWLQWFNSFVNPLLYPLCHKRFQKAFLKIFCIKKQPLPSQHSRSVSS

[14] = target: Prostacyclin receptor (Homo sapiens) (UniProt P43119); test: Inhibition of human IP (PGI2) receptor at 10 uM relative to control
Prostacyclin receptor (Homo sapiens), sequence (P43119 whole entry): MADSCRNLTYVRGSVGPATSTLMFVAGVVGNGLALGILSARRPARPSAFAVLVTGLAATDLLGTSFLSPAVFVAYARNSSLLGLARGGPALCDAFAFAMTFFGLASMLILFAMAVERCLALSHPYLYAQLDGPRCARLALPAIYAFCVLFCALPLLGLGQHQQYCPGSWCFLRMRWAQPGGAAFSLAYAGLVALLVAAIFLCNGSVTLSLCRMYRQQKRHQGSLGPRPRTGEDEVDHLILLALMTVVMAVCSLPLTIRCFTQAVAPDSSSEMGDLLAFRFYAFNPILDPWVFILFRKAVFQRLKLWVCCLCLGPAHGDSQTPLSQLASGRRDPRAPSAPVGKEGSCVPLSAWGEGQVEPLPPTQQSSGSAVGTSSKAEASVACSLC

[15] = target: Sodium-dependent serotonin transporter (Homo sapiens) (UniProt P31645); test: Inhibition of human 5-HT transporter at 10 uM relative to control
Sodium-dependent serotonin transporter (Homo sapiens), sequence (P31645 whole entry, looked up): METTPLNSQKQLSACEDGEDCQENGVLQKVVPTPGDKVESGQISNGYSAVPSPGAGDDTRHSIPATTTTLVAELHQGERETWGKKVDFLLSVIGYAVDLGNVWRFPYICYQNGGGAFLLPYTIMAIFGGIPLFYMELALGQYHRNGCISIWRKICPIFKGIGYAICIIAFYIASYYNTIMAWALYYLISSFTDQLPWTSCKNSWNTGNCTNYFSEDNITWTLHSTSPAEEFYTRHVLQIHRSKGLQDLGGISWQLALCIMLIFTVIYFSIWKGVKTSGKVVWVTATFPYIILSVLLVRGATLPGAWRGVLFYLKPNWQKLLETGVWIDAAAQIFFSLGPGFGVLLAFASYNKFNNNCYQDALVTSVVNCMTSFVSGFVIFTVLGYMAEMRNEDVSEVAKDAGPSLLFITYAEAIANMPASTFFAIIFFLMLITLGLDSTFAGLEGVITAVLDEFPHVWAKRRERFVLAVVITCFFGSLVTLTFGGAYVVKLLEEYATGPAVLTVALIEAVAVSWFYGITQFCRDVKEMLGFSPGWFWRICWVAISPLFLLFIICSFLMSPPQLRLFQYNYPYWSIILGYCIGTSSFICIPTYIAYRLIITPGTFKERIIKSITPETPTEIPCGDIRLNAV

[16] = target: Motilin receptor (Homo sapiens, UniProt O43193); test: Inhibition of human motilin receptor at 10 uM relative to control
Motilin receptor, sequence (O43193 whole entry): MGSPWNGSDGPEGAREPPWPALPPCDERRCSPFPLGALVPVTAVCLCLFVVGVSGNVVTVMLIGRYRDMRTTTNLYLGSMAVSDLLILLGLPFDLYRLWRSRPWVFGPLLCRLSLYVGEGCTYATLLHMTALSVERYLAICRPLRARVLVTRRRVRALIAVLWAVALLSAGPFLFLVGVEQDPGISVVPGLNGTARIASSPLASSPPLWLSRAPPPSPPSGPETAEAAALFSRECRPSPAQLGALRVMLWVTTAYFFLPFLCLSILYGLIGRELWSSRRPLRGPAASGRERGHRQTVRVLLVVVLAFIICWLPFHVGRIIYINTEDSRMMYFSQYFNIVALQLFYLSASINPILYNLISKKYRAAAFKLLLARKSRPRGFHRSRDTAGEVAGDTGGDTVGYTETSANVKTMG

[17] = target: GABA-A receptor; alpha-1/beta-2/gamma-2 (Homo sapiens) (UniProt P14867+P47870+P18507); test: Inhibition of human GABA alpha1/beta2/gamma2 at 10 uM relative to control; type: protein-complex assay
[18] = target: Cannabinoid receptor 1 (Homo sapiens) (UniProt P21554); test: Inhibition of human CB1 receptor at 10 uM relative to control
[19] = target: Muscarinic acetylcholine receptor M1 (Homo sapiens) (UniProt P11229); test: Inhibition of human M1 receptor at 10 uM relative to control
[20] = species: Homo sapiens; test: Inhibition of GABA-gated Cl- channel (unknown origin) at 10 uM relative to control
[21] = target: T1, Histone-lysine N-methyltransferase SETD7; test: Binding affinity to biotinylated SETD7 (unknown origin) assessed as dissociation constant in presence of SAM in flow and wash buffer by SPR analysis
[22] = target: Histamine H3 receptor (Homo sapiens) (UniProt Q9Y5N1); test: Inhibition of human H3 receptor at 10 uM relative to control
[23] = target: Neuropeptide Y receptor type 1 (Homo sapiens) (UniProt P25929); test: Inhibition of human Y1 receptor at 10 uM relative to control
[24] = target: Glucagon receptor (Homo sapiens) (UniProt P47871); test: Inhibition of human Glucagon receptor at 10 uM relative to control
Glucagon receptor (Homo sapiens), sequence (P47871 whole entry): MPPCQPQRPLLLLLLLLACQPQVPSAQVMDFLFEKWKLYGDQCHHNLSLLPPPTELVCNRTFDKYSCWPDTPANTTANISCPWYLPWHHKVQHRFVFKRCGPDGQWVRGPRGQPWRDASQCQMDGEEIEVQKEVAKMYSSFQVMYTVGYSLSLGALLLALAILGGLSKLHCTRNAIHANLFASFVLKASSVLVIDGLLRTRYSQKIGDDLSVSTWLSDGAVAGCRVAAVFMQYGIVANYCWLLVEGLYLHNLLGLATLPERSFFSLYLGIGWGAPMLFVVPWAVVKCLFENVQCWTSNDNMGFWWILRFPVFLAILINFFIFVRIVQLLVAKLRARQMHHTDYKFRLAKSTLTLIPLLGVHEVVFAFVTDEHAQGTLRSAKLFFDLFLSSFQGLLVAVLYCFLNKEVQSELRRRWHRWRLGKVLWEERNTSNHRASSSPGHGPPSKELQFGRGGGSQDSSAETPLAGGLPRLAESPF

[25] = target: Vascular endothelial growth factor receptor 1 (Homo sapiens) (UniProt P17948); test: Inhibition of human FLT-1 kinase (VEGFR1) at 10 uM relative to control
[26] = target: Prostaglandin F2-alpha receptor (Homo sapiens) (UniProt P43088); test: Inhibition of human FP receptor at 10 uM relative to control
[27] = species: Homo sapiens; test: Inhibition of Ca2+ channel L, diltiazem site(unknown origin) at 10 uM relative to control
[28] = target: 5-hydroxytryptamine receptor 6 (Homo sapiens) (UniProt P50406); test: Inhibition of human 5-HT6 receptor at 10 uM relative to control
[29] = target: Melatonin receptor type 1A (Homo sapiens) (UniProt P48039); test: Inhibition of human MT1 at 10 uM relative to control
[30] = Stability of compound in cell media by MS-LC analysis; type: physicochemical
[31] = target: Angiotensin-converting enzyme 2 (Homo sapiens) (UniProt Q9BYF1); test: Inhibition of human ACE-2 at 10 uM relative to control
Angiotensin-converting enzyme 2 (Homo sapiens), sequence (Q9BYF1 18-805 limits assumed): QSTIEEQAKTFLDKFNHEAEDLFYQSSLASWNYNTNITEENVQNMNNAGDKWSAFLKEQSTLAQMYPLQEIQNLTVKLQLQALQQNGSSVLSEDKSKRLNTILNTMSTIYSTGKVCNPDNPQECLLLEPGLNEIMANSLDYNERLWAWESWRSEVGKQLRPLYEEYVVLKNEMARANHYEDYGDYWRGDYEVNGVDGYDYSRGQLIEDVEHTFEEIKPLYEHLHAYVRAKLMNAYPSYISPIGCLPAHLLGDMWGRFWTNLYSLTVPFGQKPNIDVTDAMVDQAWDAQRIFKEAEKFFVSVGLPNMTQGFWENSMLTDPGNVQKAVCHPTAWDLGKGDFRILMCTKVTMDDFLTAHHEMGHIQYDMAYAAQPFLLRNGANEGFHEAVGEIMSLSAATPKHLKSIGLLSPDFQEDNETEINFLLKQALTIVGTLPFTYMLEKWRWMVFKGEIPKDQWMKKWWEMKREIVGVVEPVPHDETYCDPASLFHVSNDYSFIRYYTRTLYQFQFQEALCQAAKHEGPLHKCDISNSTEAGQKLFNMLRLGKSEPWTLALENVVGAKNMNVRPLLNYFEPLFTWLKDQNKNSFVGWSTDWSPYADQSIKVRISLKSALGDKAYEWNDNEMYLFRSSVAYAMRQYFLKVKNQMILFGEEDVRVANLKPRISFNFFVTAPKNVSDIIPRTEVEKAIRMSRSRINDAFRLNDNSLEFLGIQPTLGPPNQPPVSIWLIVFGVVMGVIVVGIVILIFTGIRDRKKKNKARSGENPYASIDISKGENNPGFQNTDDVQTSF

[32] = species: Homo sapiens; test: Inhibition of kainate receptor (unknown origin) at 10 uM relative to control
[33] = system: U2OS; test: Cytotoxicity against human U2OS cells assessed as reduction in cell viability at <50 uM by alamar blue assay; type: toxicity, cell-based
[34] = target: cGMP-dependent 3',5'-cyclic phosphodiesterase (Homo sapiens) (UniProt O00408); test: Inhibition of human PDE2A1 at 10 uM relative to control
[35] = system: MCF7; test: Cytotoxicity against human MCF7 cells assessed as reduction in cell viability at <50 uM by alamar blue assay; type: toxicity, cell-based; conditions: mcf7, 50 µM
[36] = system: HFF; test: Cytotoxicity against HFF cells assessed as reduction in cell viability at <50 uM by alamar blue assay; type: toxicity, cell-based; conditions: human
[37] = target: Alpha-1A adrenergic receptor (Homo sapiens) (UniProt P35348); test: Inhibition of human alpha 1A receptor at 10 uM relative to control
[38] = target: Alpha-1B adrenergic receptor (Homo sapiens) (UniProt P35368); test: Inhibition of human alpha 1B receptor at 10 uM relative to control

Substance-K receptor (Homo sapiens), sequence (P21452 whole entry): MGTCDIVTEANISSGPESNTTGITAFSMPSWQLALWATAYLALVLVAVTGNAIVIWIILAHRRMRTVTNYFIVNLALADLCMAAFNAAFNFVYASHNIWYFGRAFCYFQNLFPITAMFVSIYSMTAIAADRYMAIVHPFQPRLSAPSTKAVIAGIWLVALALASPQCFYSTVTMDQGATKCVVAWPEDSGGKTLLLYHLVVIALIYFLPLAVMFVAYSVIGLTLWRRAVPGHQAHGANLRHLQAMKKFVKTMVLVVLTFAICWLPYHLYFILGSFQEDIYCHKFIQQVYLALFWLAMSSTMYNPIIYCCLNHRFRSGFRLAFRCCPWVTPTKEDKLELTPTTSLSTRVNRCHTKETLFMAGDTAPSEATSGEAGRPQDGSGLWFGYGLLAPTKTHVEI
Mitogen-activated protein kinase 1 (Homo sapiens), sequence (P28482 whole entry): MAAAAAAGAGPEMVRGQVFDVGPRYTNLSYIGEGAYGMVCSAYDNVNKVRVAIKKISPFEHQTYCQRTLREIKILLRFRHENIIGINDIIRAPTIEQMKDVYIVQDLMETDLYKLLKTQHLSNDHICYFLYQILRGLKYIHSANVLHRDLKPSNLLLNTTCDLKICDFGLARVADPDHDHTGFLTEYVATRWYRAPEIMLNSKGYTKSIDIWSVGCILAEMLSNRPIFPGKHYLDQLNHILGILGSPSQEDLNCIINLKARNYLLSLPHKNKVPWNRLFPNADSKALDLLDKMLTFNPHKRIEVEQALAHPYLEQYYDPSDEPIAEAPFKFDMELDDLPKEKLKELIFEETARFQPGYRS

## O=C([C@@H](Cc1cccc(C(F)(F)F)c1)NS(=O)(=O)c1cc(F)c2c(c1)CCNC2)N1CCCC1
[1]
  inhibition: 28%
[2]
  inhibition: 5%
[3]
  inhibition: -3%
[4]
  solubility: 285 µM (≈ 142 µg/mL)
[5]
  inhibition: 13%
[6]
  inhibition: 0%
[7]
  inhibition: 12%
[8]
  IC50: 2 nM
[9]
  inhibition: 15%
[10]
  inhibition: 79%
[11]
  inhibition: 18%
[12]
  Ki: 0.33 nM
[13]
  inhibition: -2%
[14]
  inhibition: -7%
[15]
  inhibition: 9%
[16]
  inhibition: 55%
[17]
  inhibition: -10%
[18]
  inhibition: 25%
[19]
  inhibition: 16%
[20]
  inhibition: 28%
[21]
  Kd: 4.2 nM
[22]
  inhibition: -1%
[23]
  inhibition: -8%
[24]
  inhibition: 1%
[25]
  inhibition: 1%
[26]
  inhibition: 3%
[27]
  inhibition: 52%
[28]
  inhibition: -8%
[29]
  inhibition: 7%
[30]
  Stability: Stable
[31]
  inhibition: 4%
[32]
  inhibition: -3%
[33]
  Activity: Non-Toxic
[34]
  inhibition: -2%
[35]
  Activity: Non-Toxic
[36]
  Activity: Non-Toxic
[37]
  inhibition: -3%
[38]
  inhibition: 29%
